Source: article PMC5686395, “Eukaryotic-type serine/threonine kinase mediated phosphorylation at Thr^169 perturbs mycobacterial guanylate kinase activity” (Bioscience Reports, 2017)

Tests used:
PknA-core (PknA-338) = PknA-core (PknA-338) (Mycobacterium tuberculosis, UniProt P9WI83)
PknB = PknB (Mycobacterium tuberculosis, UniProt P9WI81)
Chain of PknB (P9WI81 2-626): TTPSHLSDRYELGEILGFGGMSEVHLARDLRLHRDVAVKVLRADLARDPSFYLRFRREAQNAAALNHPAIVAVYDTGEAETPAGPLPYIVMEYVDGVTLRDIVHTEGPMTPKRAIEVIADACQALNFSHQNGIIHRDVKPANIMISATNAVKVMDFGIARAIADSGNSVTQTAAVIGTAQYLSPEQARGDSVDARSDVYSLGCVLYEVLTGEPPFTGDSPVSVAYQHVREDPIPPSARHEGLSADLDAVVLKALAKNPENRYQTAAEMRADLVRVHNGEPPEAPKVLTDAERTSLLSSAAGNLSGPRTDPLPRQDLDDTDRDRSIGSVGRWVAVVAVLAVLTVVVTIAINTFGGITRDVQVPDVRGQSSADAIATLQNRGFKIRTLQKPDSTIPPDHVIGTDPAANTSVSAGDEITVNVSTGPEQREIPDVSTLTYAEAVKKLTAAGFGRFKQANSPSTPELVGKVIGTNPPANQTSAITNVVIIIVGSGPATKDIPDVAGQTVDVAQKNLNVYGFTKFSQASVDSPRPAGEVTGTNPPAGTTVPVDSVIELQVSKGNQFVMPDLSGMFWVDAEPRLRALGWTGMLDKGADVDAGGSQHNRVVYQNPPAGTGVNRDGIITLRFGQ

Chain of PknA-core (PknA-338) (P9WI83 1-338): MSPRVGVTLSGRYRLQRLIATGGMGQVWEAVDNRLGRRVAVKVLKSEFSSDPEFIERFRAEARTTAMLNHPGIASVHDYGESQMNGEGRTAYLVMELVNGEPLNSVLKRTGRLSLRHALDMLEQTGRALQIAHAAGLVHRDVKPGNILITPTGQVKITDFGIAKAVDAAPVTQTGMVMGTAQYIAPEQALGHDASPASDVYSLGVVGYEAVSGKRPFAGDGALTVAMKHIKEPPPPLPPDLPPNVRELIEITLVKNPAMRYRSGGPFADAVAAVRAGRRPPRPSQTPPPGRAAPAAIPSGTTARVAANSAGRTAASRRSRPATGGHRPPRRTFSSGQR

## Nc1ncnc2c1ncn2[C@@H]1O[C@H](COP(=O)(O)OP(=O)(O)OP(=O)(O)O)[C@@H](O)[C@H]1O [[γ-32P] ATP]
PknA-core (PknA-338)
  in vitro kinase assay, SDS/PAGE and autoradiography: its incubation with PknA exhibited phosphorylation
PknB
  in vitro kinase assay, SDS/PAGE and autoradiography: PknB, another essential mycobacterial kinase, instead of PknA in the assay yielded weak p-mGmk
